Assay results published in publication PMC6915999, “Simultaneous hydrolysis with lipase and fermentation of rapeseed cake for iturin A production by Bacillus amyloliquefaciens CX-20” (BMC Biotechnology, 2019).

Test system: lipase
Experiment: Stability of iturin A to lipase in fermentation broth
Type: in vitro ADME
Details: RSM (76.52 g/L) fermentation broth after 72 h fermentation; 5 U/mL lipase added vs no lipase; continued at 28 °C, 220 rpm; iturin A concentration at 0, 24, 48 and 72 h by HPLC (210 nm); triplicate; Fig. 5
Experimental: Iturin A was extracted according to a reported method. Briefly, 0.3 mL of the mixed fermentation broth was added into a 2 mL glass tube containing 1.2 mL of methanol, shaken well and incubated for 60 min. The mixture was centrifuged at 12,000 rpm for 20 min, and the supernatant was filtered through a 0.22 μm pore-size hydrophobic polytetrafluoroethylene (PTFE) type disposable syringe. The iturin A concentration was quantified using a Waters 2695 HPLC system equipped with an ACQUITY UPLC BEA C18 column (1.7 μm 2.1 × 100 mm, Waters, USA). A mixture of acetonitrile and 10 mM ammonium acetate (35:65, v/v) was used as the mobile phase at a flow rate of 0.3 mL/min, and the elution was monitored at 210 nm. The concentration of iturin A was analyzed and quantified using an authentic reference standard (Sigma Chemicals, St. Louis, MO, USA). The content of iturin A was measured using triplicate samples.
First, submerged fermentation were performed in 250 mL flasks with 20 mL medium, containing (per liter): 60 g glucose, 1 g K2HPO4·3H2O, 0.5 g MgSO4·7H2O, 0.005 g MnSO4·H2O, and 76.52 g RSM. After 72 h of fermentation, the fermentation broth was divided into two groups. Therein, one group supplemented with 5 U/mL lipase while the other without lipase addition. […] And the concentrations of iturin A at different time (0, 24, 48 and 72 h) were measured.

Question: With iturin A as the substance, how does the “stability of iturin A to excess lipase” value read?
Answer: almost no effect on the stability of iturin A
